{"source": "paper PMC6856805", "about": "“Environmental Risk Assessment for the Active Pharmaceutical Ingredient Mycophenolic Acid in European Surface Waters” (Environmental Toxicology and Chemistry, 2019)", "key": {"[1]": {"experiment": "Risk quotient PEC/PNEC or MEC/PNEC for STPs and surface freshwaters", "procedure": "The potential risk for STPs and surface freshwater organisms was characterized by dividing the various PECs and MECs by the respective PNECs for MPA (Committee for Medicinal Products for Human Use 2015). Further risk assessments were performed for antibiotic resistance risk due to the described antibiotic activity of MPA, risk for environmental top predators, and also risk for humans through so‐called secondary poisoning from uptake of water or fish."}, "[2]": {"set-up": "method as in Franquet‐Griell et al. (2017a)", "settings": "ref Franquet‐Griell et al. (2017a), cited from earlier work"}, "[3]": {"system": "Danio rerio", "experiment": "Fish partial life cycle test, OECD 229 short-term reproduction phase (F0)", "type": "in vivo", "procedure": "At the highest tested concentration of 0.1 mg MPA/L nominal concentration (73 µg/L GMMC), only 2 of 75 hatched fish survived until the end of the test, showing that the test concentration range was well chosen. The most sensitive endpoints in this partial life cycle test were survival and growth in terms of length and mass of the young F1 fish; the effects were comparatively small but statistically significant at p = 0.05. In contrast, the F0 generation was impacted to a lesser extent.\nIn view of the mammalian mutagenicity and reprotoxicity, a fish partial life-cycle test (PLC; an OECD 229 short-term reproduction test followed by an OECD 210 early-life-stage test) was performed by ECT Oekotoxikologie under GLP with a series of concentrations of MPA in a flow-through setting with the zebrafish Danio rerio (Gilberg & Chambers 2018). Briefly, mature fish (F0 generation) in breeding groups of 14 fish were exposed to four concentrations of the test item (0.0005, 0.0029, 0.0171 and 0.100 mg MPA/L), in fish media as well as to controls without the test item, in two replicates per treatment including controls, for 23 days in a 14-hours light to 10-hours dark photoperiod (OECD 229 phase). During this time period, reproduction parameters (survival of parents, fecundity, e.g., number of eggs, fertility and embryo viability/hatchability) of zebrafish exposed to the test item were assessed in comparison with the controls to determine the lowest observed effect concentration (LOEC) and the NOEC. After 23 days, newly fertilised eggs of the F1 generation were collected and exposed to the corresponding series of test item concentrations, 20 eggs in four replicates each per treatment including controls, until 30 days post-hatch (OECD 210 phase). Lethal and sublethal effects of the test item on eggs, larvae and juvenile fish exposed to the test item were assessed in comparison with controls to determine the LOEC and the NOEC. Samples were taken and analysed by LC–MS/MS (Supplemental Information) and the GMMC for the concentrations determined. Statistical check were made using Probit analyses, Weibull analyses, 2- and 3-parameter normal CDF, Shapiro-Wilk’s test on normal distribution, Levene’s test on variance homogeneity, Fisher's Exact Binomial test, Chi² 2×2 Table Test, Welsh t-test, Step-down Cochran-Armitage test Procedure, Williams Multiple Sequential t-test Procedure and Dunnett`s Multiple t-test Procedure."}, "[4]": {"system": "Anabaena flos-aquae", "experiment": "microbe, parasite or virus in culture", "type": "cell-based", "settings": "72 h", "excerpt": "The new chronic ecotoxicity tests with cyanobacteria (D. Gilberg and G. Chambers, ECT Oekotoxikologie, Flörsheim, Germany, on behalf of F.Hoffmann‐La Roche, Basle, Switzerland, unpublished data), daphnids (P. Egeler and J. Chambers, ECT Oekotoxikologie, Flörsheim, Germany, on behalf of F.Hoffmann‐La Roche, Basle, Switzerland, unpublished data), and fish (D. Gilberg and G. Chambers, unpublished data) fulfilled the validity criteria of the respective OECD guidelines (see the Supplemental Data). […] The following endpoints were determined, all relating to GMMC: NOEC (both growth and yield) 83.9 µg MPA/L, LOEC 284 µg/L, ErC10 155 (95% confidence interval [CI] 137–171) µg/L, and ErC50 423 (95% CI 406–441) µg/L (D. Gilberg and G. Chambers, unpublished data).\nAn OECD 201 algal growth inhibition test was performed by ECT Oekotoxikologie, Flörsheim, Germany, with the cyanobacterian Anabaena flos-aquae with a series of concentrations of MPA in cyanobacteria test medium in different concentrations plus medium-only controls under continuous lighting over 72 h (Gilberg & Chambers 2017). The growth of the algae was measured by calibrated fluorescence intensity of sonicated test solution samples using a fluorometer after 24, 48 and 72 hours. The test concentrations were analysed by HPLC at the start and end of the test."}}, "note": "Where two headings read alike, the source gives them in different places.", "data": [{"smiles": "COc1c(C)c2c(c(O)c1CC=C(C)CCC(=O)O)C(=O)OC2", "note": "[MPA, 6‐(1,3‐dihydro‐4‐hydroxy‐6‐methoxy‐7‐methyl‐3‐oxo‐5‐isobenzofuranyl)‐4‐methyl‐4‐hexenoic acid]", "values": [{"measurement": "highest PEC‐based risk quotient for STPs", "setting": "[1]; PECSTP 8.83 µg/L / PNECSTP", "value": 0.00128}, {"measurement": "highest MEC‐based risk quotient for STPs", "setting": "[1]; STP effluent MEC 4.19 µg/L / PNECSTP", "value": 0.0006}, {"measurement": "Risk quotient (PNECEC10), Average initial EMA EU PEC", "setting": "[1]; STP removal 0%", "value": 0.516}, {"measurement": "Risk quotient (PNECEC10), Average refined PEC per country", "setting": "[1]; STP removal 12%", "value": 0.141}, {"measurement": "Risk quotient (PNECEC10), Guadalquivir catchment low flow 99th percentile ePiE PEC", "setting": "[1]; STP removal 12%", "value": 21.41}, {"measurement": "Risk quotient (PNECEC10), Guadalquivir catchment low flow median ePiE PEC", "setting": "[1]; STP removal 12%", "value": "<0.002"}, {"measurement": "Risk quotient (PNECEC10), Guadalquivir catchment mean flow 1st percentile ePiE PEC", "setting": "[1]; STP removal 12%", "value": "<0.002"}, {"measurement": "Risk quotient (PNECEC10), Guadalquivir catchment mean flow 99th percentile ePiE PEC", "setting": "[1]; STP removal 12%", "value": 9.474}, {"measurement": "Risk quotient (PNECEC10), Guadalquivir catchment mean flow median ePiE PEC", "setting": "[1]; STP removal 12%", "value": "<0.002"}, {"measurement": "Risk quotient (PNECEC10), Highest refined PEC per country", "setting": "[1]; STP removal 12%", "value": 0.917}, {"measurement": "Risk quotient (PNECEC10), Lowest refined PEC per country", "setting": "[1]; STP removal 12%", "value": 0.003}, {"measurement": "Risk quotient (PNECEC10), Median refined PEC per country", "setting": "[1]; STP removal 12%", "value": 0.100}, {"measurement": "Risk quotient (PNECEC10), Ouse catchment low flow 99th percentile ePiE PEC", "setting": "[1]; STP removal 12%", "value": 4.967}, {"measurement": "Risk quotient (PNECEC10), Ouse catchment low flow median ePiE PEC", "setting": "[1]; STP removal 12%", "value": 0.336}, {"measurement": "Risk quotient (PNECEC10), Ouse catchment mean flow 1st percentile ePiE PEC", "setting": "[1]; STP removal 12%", "value": 0.002}, {"measurement": "Risk quotient (PNECEC10), Ouse catchment mean flow 99th percentile ePiE PEC", "setting": "[1]; STP removal 12%", "value": 1.226}, {"measurement": "Risk quotient (PNECEC10), Ouse catchment mean flow median ePiE PEC", "setting": "[1]; STP removal 12%", "value": 0.083}, {"measurement": "Risk quotient (PNECEC10), Rhine catchment low flow 99th percentile ePiE PEC", "setting": "[1]; STP removal 12%", "value": 4.597}, {"measurement": "Risk quotient (PNECEC10), Rhine catchment low flow median ePiE PEC", "setting": "[1]; STP removal 12%", "value": 0.036}, {"measurement": "Risk quotient (PNECEC10), Rhine catchment mean flow 1st percentile ePiE PEC", "setting": "[1]; STP removal 12%", "value": "<0.002"}, {"measurement": "Risk quotient (PNECEC10), Rhine catchment mean flow 99th percentile ePiE PEC", "setting": "[1]; STP removal 12%", "value": 1.157}, {"measurement": "Risk quotient (PNECEC10), Turia catchment low flow median ePiE PEC", "setting": "[1]; STP removal 12%", "value": 0.300}, {"measurement": "Risk quotient (PNECEC10), Turia catchment mean flow 1st percentile ePiE PEC", "setting": "[1]; STP removal 12%", "value": "<0.002"}, {"measurement": "Risk quotient (PNECEC10), Turia catchment mean flow 99th percentile ePiE PEC", "setting": "[1]; STP removal 12%", "value": 0.955}, {"measurement": "Risk quotient (PNECEC10), Turia catchment mean flow median ePiE PEC", "setting": "[1]; STP removal 12%", "value": 0.048}, {"measurement": "Risk quotient (PNECEC10), Average refined PEC per country", "setting": "[1]; STP removal 43.6%", "value": 0.100}, {"measurement": "Risk quotient (PNECEC10), Highest refined PEC per country", "setting": "[1]; STP removal 43.6%", "value": 0.660}, {"measurement": "Risk quotient (PNECEC10), Lowest refined PEC per country", "setting": "[1]; STP removal 43.6%", "value": 0.002}, {"measurement": "Risk quotient (PNECEC10), Median refined PEC per country", "setting": "[1]; STP removal 43.6%", "value": 0.072}, {"measurement": "Risk quotient (PNECEC10), Average refined PEC per country", "setting": "[1]; STP removal 73.1%", "value": 0.064}, {"measurement": "Risk quotient (PNECEC10), Highest refined PEC per country", "setting": "[1]; STP removal 73.1%", "value": 0.422}, {"measurement": "Risk quotient (PNECEC10), Lowest refined PEC per country", "setting": "[1]; STP removal 73.1%", "value": "<0.002"}, {"measurement": "Risk quotient (PNECEC10), Median refined PEC per country", "setting": "[1]; STP removal 73.1%", "value": 0.047}, {"measurement": "risk quotient for the PNECNOEC", "setting": "[1]; initial use‐based Europe‐wide PEC", "value": 2.27}, {"measurement": "Risk quotient (PNECEC10), Maximum MEC", "setting": "[1]; surface water MECs", "value": 1.131}, {"measurement": "Risk quotient (PNECEC10), Median MEC", "setting": "[1]; surface water MECs", "value": "~0.003"}, {"measurement": "biodegradation rate constant k biodeg", "setting": "[2]; fifth cycle", "value": 0.006, "unit": "min^–1"}, {"measurement": "biodegradation rate constant k biodeg", "setting": "[2]; first cycle", "value": 0.0017, "unit": "min^–1"}, {"measurement": "EC10 for survival of the parental fish", "setting": "[3]; 23 d, GMMC", "value": 0.0189, "unit": "µg/mL"}, {"measurement": "NOEC of all endpoints (survival of parental fish, fecundity, fertilization success), F0", "setting": "[3]; 23 d, GMMC", "value": 73, "unit": "µg/L"}, {"measurement": "NOEC of all endpoints (survival of parental fish, fecundity, fertilization success), F0", "setting": "[3]; 23 d, highest tested nominal concentration", "value": 100, "unit": "µg MPA/L"}, {"measurement": "EC10 for fecundity and fertilization success", "setting": "[3]; Danio rerio, in vivo, 23 days", "value": "> 73", "unit": "µg MPA/L"}, {"measurement": "ErC10", "setting": "[4]; Anabaena flos-aquae", "value": 155, "unit": "µg/L"}, {"measurement": "LOEC", "setting": "[4]; Anabaena flos-aquae", "value": 284, "unit": "µg/L"}, {"measurement": "NOEC (both growth and yield)", "setting": "[4]; Anabaena flos-aquae", "value": 83.9, "unit": "µg MPA/L"}, {"measurement": "EC50", "setting": "[4]; Dolichospermum flos-aquae, GMMC, read-out: ErC50", "value": 0.423, "unit": "µg/mL"}]}]}
